From patent US20090048303A1, “Indole-2-carboxamidine derivatives as nmda receptor antago” (priority 2004, published 2009)

Target: T1, NMDA receptors of rat cortical neurons (Rattus norvegicus, UniProt Q00960)
T1 construct: primary neocortical cell cultures derived from 17 day old Charles River rat embryos; endogenous in cells; host or cells: primary rat embryonic (E17) neocortical cell culture, 3-7 days in vitro
Experiment: NMDA antagonist potency by intracellular calcium measurement (plate reader fluorimeter) in rat cortical cell culture
Format: cell-based
Conditions: not given
Protocol: Assessment of NMDA Antagonist Potency In Vitro by Measurement of Intracellular Calcium Concentration with a Plate Reader Fluorimeter in Rat Cortical Cell Culture
The intracellular calcium measurements were carried out on primary neocortical cell cultures derived from 17 day old Charles River rat embryos (for the details on the preparation of neocortical cell culture see Johnson, M. I.; Bunge, R. P. (1992): Primary cell cultures of peripheral and central neurons and glia. In: Protocols for Neural Cell Culture, eds: Fedoroff, S.; Richardson A., The Humana Press Inc., 51-75.) After isolation the cells were plated onto standard 96-well microplates and the cultures were maintained in an atmosphere of 95% air-5% CO2 at 37° C. until the calcium measurements.
The cultures were used for the intracellular calcium measurements after 3-7 days in vitro. Before the measurement the cells were loaded with a fluorescent Ca^2+-sensitive dye, Fluo-4/AM (2 μM). To stop the loading the cells were washed twice with the solution used for the measurement (140 mM NaCl, 5 mM KCl, 2 mM CaCl2, 5 mM HEPES, 5 mM HEPES-Na, 20 mM glucose, 10 μM glycine, pH=7.4). After washing the test compounds were added to the cells in the above solution (90 μl/well). Intracellular calcium measurements were carried out with a plate reader fluorimeter: elevation of Fluo-4-fluorescence and so, intracellular calcium was induced by application of 40 μM NMDA. Inhibitory potency of the test compounds was assessed by measuring the reduction in the calcium elevation in the presence of different concentrations of the compounds.
(§1) Dose-response curves and IC50 values were calculated by using data derived from at least three independent experiments. Inhibitory potency of a compound at a single concentration point was expressed as percent inhibition of the NMDA response. Sigmoidal concentration-inhibition curves were fit to the data and IC50 values were determined as the concentration that produces half of the maximal inhibition caused by the compound.

T1 sequence (Q00960 27-1482, other chains not shown): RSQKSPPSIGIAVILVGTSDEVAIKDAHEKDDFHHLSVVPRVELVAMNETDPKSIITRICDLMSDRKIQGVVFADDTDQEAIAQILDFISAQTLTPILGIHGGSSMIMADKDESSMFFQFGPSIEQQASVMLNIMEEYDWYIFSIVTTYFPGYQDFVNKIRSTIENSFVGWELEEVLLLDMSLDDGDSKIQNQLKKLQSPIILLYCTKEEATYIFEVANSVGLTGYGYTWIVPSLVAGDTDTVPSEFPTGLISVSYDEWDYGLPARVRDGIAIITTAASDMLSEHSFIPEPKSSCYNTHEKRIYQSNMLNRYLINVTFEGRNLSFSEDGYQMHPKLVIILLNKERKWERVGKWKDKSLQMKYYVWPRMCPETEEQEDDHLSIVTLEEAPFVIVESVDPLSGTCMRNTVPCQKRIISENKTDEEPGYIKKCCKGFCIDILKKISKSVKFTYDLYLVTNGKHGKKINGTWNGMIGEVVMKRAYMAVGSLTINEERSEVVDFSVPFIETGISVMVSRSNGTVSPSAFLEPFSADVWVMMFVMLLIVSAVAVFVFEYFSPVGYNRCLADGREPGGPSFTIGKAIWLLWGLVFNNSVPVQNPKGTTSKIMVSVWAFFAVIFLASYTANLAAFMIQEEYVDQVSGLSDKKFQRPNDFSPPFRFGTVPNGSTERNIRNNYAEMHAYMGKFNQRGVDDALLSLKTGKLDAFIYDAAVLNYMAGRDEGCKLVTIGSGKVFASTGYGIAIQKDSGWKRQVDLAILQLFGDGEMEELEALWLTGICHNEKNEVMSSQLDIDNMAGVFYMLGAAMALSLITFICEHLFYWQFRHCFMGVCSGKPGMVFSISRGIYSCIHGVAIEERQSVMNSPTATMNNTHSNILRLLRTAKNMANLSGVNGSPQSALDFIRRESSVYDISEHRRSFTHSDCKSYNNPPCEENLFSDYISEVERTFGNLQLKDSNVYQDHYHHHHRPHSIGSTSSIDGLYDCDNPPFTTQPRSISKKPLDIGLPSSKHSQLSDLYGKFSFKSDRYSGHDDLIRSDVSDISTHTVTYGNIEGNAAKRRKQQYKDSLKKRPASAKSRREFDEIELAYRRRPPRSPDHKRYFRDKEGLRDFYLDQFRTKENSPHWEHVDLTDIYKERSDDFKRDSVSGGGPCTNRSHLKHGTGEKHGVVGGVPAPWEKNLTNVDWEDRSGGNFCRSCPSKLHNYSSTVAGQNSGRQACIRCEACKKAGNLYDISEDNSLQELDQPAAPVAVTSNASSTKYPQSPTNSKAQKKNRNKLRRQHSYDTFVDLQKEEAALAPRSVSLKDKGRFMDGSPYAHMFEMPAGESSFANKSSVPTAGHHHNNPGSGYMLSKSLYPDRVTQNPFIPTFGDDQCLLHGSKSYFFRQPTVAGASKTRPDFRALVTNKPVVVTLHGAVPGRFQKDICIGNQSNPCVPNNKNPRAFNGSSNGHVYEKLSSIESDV

Compound	IC50 [nM]
CC(CN1CCC(Cc2ccccc2)CC1)C(O)c1ccc(O)cc1 (stereo not drawn) [Ro 25.6981, R-(R*,S*)-1-(4-hydroxyphenyl)-2-methyl-3-[4-(phenylmethyl)piperidin-1-yl]-1-propanol, reference compound]	159

Same assay, conditions: rat cortical cells, 40 μM NMDA, fluorimetric method; read-out: Cortical cells IC50

Compound	IC50 [nM]
O=c1[nH]c2ccc([S+]([O-])CCN3CCC(Cc4ccc(F)cc4)CC3)cc2o1 (stereo not shown) [CI-1041, 6-{2-[4-(4-fluoro-benzyl)-piperidin-1-yl]-ethanesulfinyl}-3H-benzooxazol-2-one, reference compound]	6.6
Cc1ccc(CC2(O)CCN(CCOc3ccc(O)cc3)CC2)cc1 [Co-101244, 1-[2-(4-hydroxyphenoxy)ethyl]-4-hydroxy-4-(4-methylbenzyl)piperidine, reference compound]	23
CCOc1ccccc1CNC(=N)c1cc2ccccc2[nH]1 [Compound 19]	75
N=C(NCc1ccccc1Br)c1cc2ccccc2[nH]1 [Compound 25]	277
N=C(NCc1cccc(Br)c1)c1cc2ccccc2[nH]1 [Compound 26]	418
N=C(NCc1ccccc1F)c1cc2ccccc2[nH]1 [Compound 29]	232
N=C(NCc1cc(F)ccc1F)c1cc2ccccc2[nH]1 [Compound 30]	224
N=C(NCc1c(F)cccc1F)c1cc2ccccc2[nH]1 [Compound 31]	143
Cc1ccccc1C/N=C(\N)c1cc2ccccc2[nH]1 [Compound 32]	170
COc1ccc(OC)c(CNC(=N)c2cc3ccccc3[nH]2)c1 [Compound 35]	341
COc1cccc(OC)c1CNC(=N)c1cc2ccccc2[nH]1 [Compound 36]	5.4
N=C(NCc1cc(Cl)cc(Cl)c1)c1cc2ccccc2[nH]1 [Compound 38]	159
COc1cccc(CNC(=N)c2cc3cc(F)ccc3[nH]2)c1 [Compound 57]	211
CCOc1ccccc1CNC(=N)c1cc2cc(F)ccc2[nH]1 [Compound 59]	51
N=C(NCc1cc(F)ccc1F)c1cc2cc(F)ccc2[nH]1 [Compound 67]	359
Cc1ccccc1CNC(=N)c1cc2cc(F)ccc2[nH]1 [Compound 68]	160
N=C(NCc1cc(F)cc(F)c1)c1cc2cc(F)ccc2[nH]1 [Compound 70]	594
COc1ccc(OC)c(CNC(=N)c2cc3cc(F)ccc3[nH]2)c1 [Compound 71]	453
COc1cccc(OC)c1C/N=C(\N)c1cc2cc(F)ccc2[nH]1 [Compound 72]	17
N=C(NCc1cc(Cl)cc(Cl)c1)c1cc2cc(F)ccc2[nH]1 [Compound 73]	209
N=C(NCc1cccc(F)c1)c1cc2cc(Cl)ccc2[nH]1 [Compound 81]	432
COc1ccc(CNC(=N)c2cc3cc(Cl)ccc3[nH]2)c(OC)c1 [Compound 83]	369
N=C(NCc1ccccc1Cl)c1cc2cc(Cl)ccc2[nH]1 [Compound 87]	422
COc1cccc(CNC(=N)c2cc3cc(Cl)ccc3[nH]2)c1 [Compound 92]	319
CCOc1ccccc1CNC(=N)c1cc2cc(Cl)ccc2[nH]1 [Compound 94]	213
N=C(NCc1cccnc1)c1cc2cc(Cl)ccc2[nH]1 [Compound 97]	125

Compound	IC50 [nM]
N=C(NCc1cccc(Br)c1)c1cc2cc(Cl)ccc2[nH]1 [Compound 103]	257
N=C(NCc1ccccc1OC(F)(F)F)c1cc2cc(Cl)ccc2[nH]1 [Compound 106]	198
N=C(NCc1ccccc1F)c1cc2cc(Cl)ccc2[nH]1 [Compound 107]	493
N=C(NCc1c(F)cccc1F)c1cc2cc(Cl)ccc2[nH]1 [Compound 108]	742
Cc1ccccc1CNC(=N)c1cc2cc(Cl)ccc2[nH]1 [Compound 109]	218
N=C(NCc1cc(F)cc(F)c1)c1cc2cc(Cl)ccc2[nH]1 [Compound 110]	702
COc1ccc(OC)c(CNC(=N)c2cc3cc(Cl)ccc3[nH]2)c1 [Compound 111]	417
COc1cccc(OC)c1C/N=C(\N)c1cc2cc(Cl)ccc2[nH]1 [Compound 112]	69
COc1ccc2[nH]c(C(=N)NCc3ccccc3)cc2c1 [Compound 118]	224
COc1ccc2[nH]c(C(=N)NCc3ccccc3C(F)(F)F)cc2c1 [Compound 119]	401
COc1ccc(CNC(=N)c2cc3cc(OC)ccc3[nH]2)c(OC)c1 [Compound 123]	129
COc1ccc2[nH]c(C(=N)NCc3ccc(OC)c(OC)c3)cc2c1 [Compound 126]	519
COc1ccc2[nH]c(C(=N)NCc3cccc(Cl)c3)cc2c1 [Compound 127]	373
COc1ccc2[nH]c(C(=N)NCc3cccc(C)c3)cc2c1 [Compound 128]	220
COc1cccc(CNC(=N)c2cc3cc(OC)ccc3[nH]2)c1 [Compound 129]	52
CCOc1ccccc1CNC(=N)c1cc2cc(OC)ccc2[nH]1 [Compound 131]	57
COc1ccc2[nH]c(C(=N)NCc3cccnc3)cc2c1 [Compound 134]	100
COc1ccc2[nH]c(C(=N)NCc3ccccc3Br)cc2c1 [Compound 138]	232
COc1ccc2[nH]c(C(=N)NCc3cccc(Br)c3)cc2c1 [Compound 139]	397
COc1ccc2[nH]c(C(=N)NCc3cc(F)ccc3F)cc2c1 [Compound 142]	202
COc1ccc2[nH]c(C(=N)NCc3c(F)cccc3F)cc2c1 [Compound 143]	158
COc1ccc2[nH]c(C(=N)NCc3cc(F)cc(F)c3)cc2c1 [Compound 145]	318
COc1ccc(OC)c(CNC(=N)c2cc3cc(OC)ccc3[nH]2)c1 [Compound 146]	287
COc1ccc2[nH]c(C(=N)NCc3c(OC)cccc3OC)cc2c1 [Compound 147]	26
O=C(CCN1CCC(Cc2ccc(F)cc2)CC1)c1ccc2[nH]c(=O)oc2c1 [EMD 95885, reference compound]	35

Target: T2, recombinant NMDA receptors NR1(−3)/NR2A (Homo sapiens, UniProt Q05586+Q12879)
T2 construct: expressed in transfected cells
Experiment: Inhibition of NMDA evoked cytosolic calcium elevation in HEK 293 cells expressing recombinant NR1-3/NR2A
Format: cell-based
Conditions: 10 μM, NR1-3/NR2A subunit expressing cells
Protocol: (2003)]. […] Compounds were tested for their inhibitory action on NMDA evoked cytosolic calcium elevations in fluorescent calcium measurements. Studies were performed 48-72 h after addition of the inducing agent. Ketamine (500 μM) was also present during the induction in order to prevent cytotoxicity.
as §1

T2 sequence (Q12879 23-1464, other chains not shown): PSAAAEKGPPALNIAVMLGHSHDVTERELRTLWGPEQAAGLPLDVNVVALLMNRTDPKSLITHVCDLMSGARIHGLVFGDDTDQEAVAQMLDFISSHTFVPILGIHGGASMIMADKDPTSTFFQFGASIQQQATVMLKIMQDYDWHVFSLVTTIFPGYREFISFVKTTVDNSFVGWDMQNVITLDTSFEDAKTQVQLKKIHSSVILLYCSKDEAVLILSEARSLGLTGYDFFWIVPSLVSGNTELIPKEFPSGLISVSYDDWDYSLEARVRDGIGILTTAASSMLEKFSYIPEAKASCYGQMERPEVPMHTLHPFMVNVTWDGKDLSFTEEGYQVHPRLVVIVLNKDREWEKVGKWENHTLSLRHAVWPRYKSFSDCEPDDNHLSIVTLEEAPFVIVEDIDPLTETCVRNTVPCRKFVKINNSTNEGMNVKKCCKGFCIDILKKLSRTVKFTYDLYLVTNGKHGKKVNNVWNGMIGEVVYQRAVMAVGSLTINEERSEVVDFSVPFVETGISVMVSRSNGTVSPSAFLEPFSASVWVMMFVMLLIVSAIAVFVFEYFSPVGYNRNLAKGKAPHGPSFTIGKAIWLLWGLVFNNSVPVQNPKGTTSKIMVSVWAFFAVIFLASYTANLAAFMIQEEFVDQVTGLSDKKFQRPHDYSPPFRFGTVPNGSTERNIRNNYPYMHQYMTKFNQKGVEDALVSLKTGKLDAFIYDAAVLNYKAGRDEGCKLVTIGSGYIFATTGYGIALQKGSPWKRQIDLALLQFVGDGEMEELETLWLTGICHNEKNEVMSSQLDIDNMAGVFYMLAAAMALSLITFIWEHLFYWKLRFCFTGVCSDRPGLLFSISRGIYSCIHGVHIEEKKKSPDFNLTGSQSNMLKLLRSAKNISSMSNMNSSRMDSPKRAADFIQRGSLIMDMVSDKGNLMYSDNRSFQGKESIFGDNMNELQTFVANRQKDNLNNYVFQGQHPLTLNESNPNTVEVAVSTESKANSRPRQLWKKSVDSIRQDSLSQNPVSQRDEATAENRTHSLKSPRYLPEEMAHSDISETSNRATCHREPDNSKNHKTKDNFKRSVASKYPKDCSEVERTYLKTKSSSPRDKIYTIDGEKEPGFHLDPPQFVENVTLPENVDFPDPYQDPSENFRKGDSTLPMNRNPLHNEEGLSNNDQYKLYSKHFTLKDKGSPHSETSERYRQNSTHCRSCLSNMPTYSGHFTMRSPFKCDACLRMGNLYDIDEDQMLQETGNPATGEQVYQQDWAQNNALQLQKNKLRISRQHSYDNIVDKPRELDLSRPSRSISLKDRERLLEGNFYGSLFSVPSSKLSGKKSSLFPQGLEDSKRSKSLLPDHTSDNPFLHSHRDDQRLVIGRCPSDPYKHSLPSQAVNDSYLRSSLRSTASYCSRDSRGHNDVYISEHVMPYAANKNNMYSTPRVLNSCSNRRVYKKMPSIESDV

Compound	NR1-3/NR2A % inhibition at 10 μM [%]
O=C(CCN1CCC(Cc2ccc(F)cc2)CC1)c1ccc2[nH]c(=O)oc2c1 [EMD 95885, reference compound]	0.1

Same assay, conditions: HEK293; 10 μM, NR1-3/NR2A subunit expressing cells

Compound	inhibition at 10 µM [%]
C[C@@H]([C@@H](O)c1ccc(O)cc1)N1CCC(O)(c2ccccc2)CC1 [CP 101,606, (1S,2S)-1-(4-hydroxyphenyl)-2-(4-hydroxy-4-phenylpiperidine-1-yl)-1-propanol]	2.5
CC(C(O)c1ccc(O)cc1)N1CCC(Cc2ccccc2)CC1 (stereo not drawn) [Erythro-ifenprodil, erythro-2-(4-benzylpiperidino)-1-(4-hydroxyphenyl)-1-propanol]	-2.7
CC(CN1CCC(Cc2ccccc2)CC1)C(O)c1ccc(O)cc1 (stereo not drawn) [Ro 25.6981, R-(R*,S*)-1-(4-hydroxyphenyl)-2-methyl-3-[4-(phenylmethyl)piperidin-1-yl]-1-propanol, reference compound]	1

Same assay, conditions: HEK293; 15 μM, NR1-3/NR2A subunit expressing cells

Compound	inhibition at 15 µM [%]
COc1cccc(OC)c1CNC(=N)c1cc2ccccc2[nH]1 [Compound 36]	32.1
COc1ccc2[nH]c(C(=N)NCc3cccnc3)cc2c1 [Compound 134]	6.1
COc1ccc2[nH]c(C(=N)NCc3c(OC)cccc3OC)cc2c1 [Compound 147]	21.7

Tested on: not given
Experiment: not given
Conditions: cited from earlier work

Compound	effect on neuropathic pain in clinical trial
C[C@@H]([C@@H](O)c1ccc(O)cc1)N1CCC(O)(c2ccccc2)CC1 [CP 101,606, (1S,2S)-1-(4-hydroxyphenyl)-2-(4-hydroxy-4-phenylpiperidine-1-yl)-1-propanol]	reduced neuropathic pain

Same assay, conditions: no psychotomimetic effects, hallucinations, dysphoria; cited from earlier work

Compound	tolerability in clinical trial
C[C@@H]([C@@H](O)c1ccc(O)cc1)N1CCC(O)(c2ccccc2)CC1 [CP 101,606, (1S,2S)-1-(4-hydroxyphenyl)-2-(4-hydroxy-4-phenylpiperidine-1-yl)-1-propanol]	well tolerated
